Test results reported in US20250325645A1, “BOVINE VIRAL DIARRHEA VIRUS IMMUNOGENIC COMPOSITIONS AND METHODS OF USE THEREOF” (KANSAS STATE UNIVERSITY RESEARCH FOUNDATION, priority 2021, published 2025).

System: CD8+ T cells from BVDV-immunized steers
Assay: MHC I blocking ELISPOT assay
Details: steers 2539 and 2593; 2.5 μg/ml peptide; mAbs H58A and PT85A at 1.0 μg/ml vs IgG2a isotype control; p<0.05
Method: Co-cultures of CD8+ T cells and autologous CD14+ monocytes from one TGAC-immunized steer (2539) and one A125-immunized steer (2593), were incubated with 2.5 μg/ml of peptide in the presence of either the two anti-bovine MHC I mAbs or IgG2a isotype control. The IFN-γ+CD8+ T cell responses in the presence or absence of anti-bovine MHC I mAbs were reported as SFC per million CD8+ T cells described as above.
The results from MHC I blocking ELISPOT assay were analyzed by Wilcoxon test in GraphPad Prism 7 (Version 7.04, GraphPad Software, Inc. La Jolla, CA). The significance of the difference in peptide-specific IFN-γ+CD8+ T cell responses in the absence or presence of anti-bovine MHC I mAbs was determined by a non-parametric test and the level of significance was set at p<0.05.

| Sequence | IFN-γ+CD8+ T cell recall responses in the presence of anti-bovine MHC I mAbs |
| --- | --- |
| FGAYAASPY [Peptide 86] | significantly reduced |
| GPVYHRAPL [Peptide 61] | significantly reduced |
| GSVWNLGKY [Peptide 56] | significantly reduced |
| SEQKRTLLM [Peptide 37] | significantly reduced |
| YFEPRDNYF [Peptide 100] | significantly reduced |
| YYDDNLNEI [Peptide 64] | significantly reduced |
